Where two headings read alike, the source gives them in different places.
Experiments:
[1] = Pharmacokinetic study, oral, serum LC-MS; format: in vivo, SD rats; conditions: for Cl/F_obs / Vz/F_obs / AUC(0-t) / Cmax / Tmax / AUC(0-inf) / MRT inf / half-life: free drug coarse suspension; for AUC(0-t) / Cmax / Tmax / AUC(0-inf) / MRT inf / half-life: Sprague-Dawley (SD); for AUC(0-inf): read-out: AUC 0-inf_obs; for MRT inf: read-out: MRT 0-inf_obs; for half-life: read-out: t½ (converted)
Experimental: Healthy male SD rats (weighing 200-230 gm) were used for the pharmacokinetic study. The animals were fasted overnight and had free access to water. The animals were divided into six groups with each group having 6 male SD rats (6×6=36) and were orally administered with optimized compound X nano lipid carrier formulation and coarse suspension (free drug) of compound X. All the formulations were administered orally with the help of rat oral feeding tube. The group comprises as follows, GROUP 1: Only vehicle sodium suspension as control/blank. GROUP 2: Compound X optimized NLC formulation by oral delivery (25 mg/kg). GROUP 3: Compound X free drug as coarse suspension by oral delivery (25 mg/kg). GROUP 4: Compound X free drug as coarse suspension by oral delivery (50 mg/kg). GROUP 5: Compound X free drug as coarse suspension by oral delivery (100 mg/kg). GROUP 6: Compound X free drug as coarse suspension by oral delivery (200 mg/kg). Blood samples were withdrawn from retro-orbital venous plexus puncture at time intervals of 0.25, 0.5, 1, 2, 4, 8, 12, 24 and 48 hours. The blood samples were allowed to clot and centrifuged for 15 min at 4500 rpm. The serum was separated and transferred into clean micro centrifuge tubes and stored at −80° C. until further analysis. 50 μl of rat serum was taken from samples and added to extraction solvent 2.5% IPA in n-Hexane (2 mL) containing internal standard (SCTK-14 of 2.5 ng) than Vortexed for 10 minutes, the samples were centrifuged at 4500 rpm and 4° C. for 15 minutes. After centrifugation, samples were stored at −80° C. for 30 minutes, and the supernatant organic layer was transferred and evaporated to dryness in a thermostatically controlled water bath maintained at 30° C. under steam of nitrogen for 30 minutes. After drying the residue was reconstituted by adding 200 microlitres of acetonitrile into pre-labelled vials and vortexed for 20 seconds, and then the samples were injected into the LC-MS system for analysis.
The pharmacokinetic parameters of compound X were calculated by non-compartmental estimations using PK solver 2.0 software.

[2] = Detection of compound in mice liver by Q-TOF LC/MS; format: in vivo; conditions: LC-ESI-MS of liver metabolites
Experimental: The liver samples of mice treated with compound I were homogenized in a solution consisting of 50% methanol and 50% water and then snap frozen in liquid nitrogen followed by lyophilization. Profiling of intracellular metabolites was performed on an agilent 1290 Infinity LC system coupled to Agilent 6545 Accurate Mass Quadrupole Time of Flight (QTOF) with Agilent Jet Stream Thermal Gradient Technology. The UPLC system was assembled with a Diode array detector (DAD) and autosampler. The Chromatographic separation was achieved on Agilent ZORBAX SB-C18 column (2.1×100 mm, 1.8 μm) as stationary phase. […]
The ESI spectra of pure solution of compound of Formula I was taken as reference (FIG. 14A). When LC-ESI-MS analysis of metabolites of compound treated mice, liver was performed, the corresponding protonated molecular ion species was detected in the ESI spectra (FIG. 14B).

[3] = male, rat, serum, 25 mg/kg oral
[4] = male, rat, serum, 50 mg/kg oral
[5] = male, rat, serum, 100 mg/kg oral
[6] = male, rat, serum, 200 mg/kg oral

SMILES: COc1ccc(C(=O)C2=C3OC(C)(C)[C@@H](CC=C(C)C)C[C@@]34C[C@@H](CC=C(C)C)C(C)(C)[C@@](CC=C(C)C)(C2=O)C4=O)cc1OC [Compound X]
- difference in AUC between doses ([1]; free compound X at 25, 50, 100 and 200 mg/kg, except at 200 mg/kg): no appreciable difference in AUC
- Cl/F_obs ([1]; 25 mg/kg oral): 3.338 ± 0.33 mg)/(ng/ml)/h
- Vz/F_obs ([1]; 25 mg/kg oral): 71.906 ± 29.05 (mg)/(ng/ml)
- Cl/F_obs ([1]; 50 mg/kg oral): 8.071 ± 2.12 mg)/(ng/ml)/h
- Vz/F_obs ([1]; 50 mg/kg oral): 193.686 ± 112.43 (mg)/(ng/ml)
- Cl/F_obs ([1]; 100 mg/kg oral): 18.233 ± 4.3 mg)/(ng/ml)/h
- Vz/F_obs ([1]; 100 mg/kg oral): 346.653 ± 2.6193 (mg)/(ng/ml)
- Cl/F_obs ([1]; 200 mg/kg oral): 10.882 ± 4.58 mg)/(ng/ml)/h
- Vz/F_obs ([1]; 200 mg/kg oral): 209.737 ± 91.22 (mg)/(ng/ml)
- AUC ([1]; male, SD, rat, serum, oral, free compound X, 200 mg/kg dose): ~20 ng·h/mL
- AUC(0-t) [1, 3]: 6.56 ± 1.57 ng·h/mL
- Cmax [1, 3]: 0.853 ± 0.09 ng/mL
- Tmax [1, 3]: 4.67 ± 3.05 h
- AUC(0-inf) [1, 3]: 7.54 ± 0.8 ng·h/mL
- MRT inf [1, 3]: 22.2 ± 9.59 h
- half-life [1, 3]: 14.7 ± 5.07 h
- AUC(0-t) [1, 4]: 4.74 ± 0.1 ng·h/mL
- Cmax [1, 4]: 2.49 ± 0.14 ng/mL
- Tmax [1, 4]: 0.333 ± 0.14 h
- AUC(0-inf) [1, 4]: 6.49 ± 1.71 ng·h/mL
- MRT inf [1, 4]: 28.4 ± 22.8 h
- half-life [1, 4]: 18.6 ± 12.2 h
- AUC(0-t) [1, 5]: 5.29 ± 0.99 ng·h/mL
- Cmax [1, 5]: 0.343 ± 0.15 ng/mL
- Tmax [1, 5]: 0.667 ± 0.28 h
- AUC(0-inf) [1, 5]: 5.74 ± 1.6 ng·h/mL
- MRT inf [1, 5]: 21 ± 3.98 h
- half-life [1, 5]: 13.8 ± 3.74 h
- AUC(0-t) [1, 6]: 19.1 ± 7.84 ng·h/mL
- Cmax [1, 6]: 2.83 ± 2.16 ng/mL
- Tmax [1, 6]: 2.92 ± 4.4 h
- AUC(0-inf) [1, 6]: 20.6 ± 7.98 ng·h/mL
- MRT inf [1, 6]: 15.7 ± 2.87 h
- half-life [1, 6]: 13.4 ± 4.31 h
- detection in mice liver (bioavailability) [2]: detected in its intact form

— US20240269106A1, “SMALL MOLECULE MODULATOR TARGETING A RARE HISTONE MODIFICATION REGULATING ADIPOGENESIS AND PHARMACEUTICAL FORMULATION THEREOF” (COUNCIL OF SCIENTIFIC AND INDUSTRIAL RESEARCH AN INDIAN …, priority 2021, published 2024)
